Values quoted from earlier work, collected in publication PMC9688344, “[^225Ac]Ac-SibuDAB for Targeted Alpha Therapy of Prostate Cancer: Preclinical Evaluation and Comparison with [^225Ac]Ac-PSMA-617” (Cancers, 2022).
Where two headings read alike, the source gives them in different places.

Key:
[1] = cited from earlier work
[2] = test system: PSMA-positive PC-3 PIP cells; details: 4 h incubation; ref Tschan et al., Eur J Nucl Med Mol Imaging 2022; cited from earlier work
[3] = molecular target: T1, PSMA (Homo sapiens, UniProt Q04609); details: ref Deberle & Benešová et al., Theranostics 2020; cited from earlier work
T1 construct: expressed in transfected cells; host or cells: PC-3 PIP prostate cancer cells (transduced to express PSMA), provided by Prof; Dr. Martin Pomper, Johns Hopkins University
T1 sequence (Q04609 whole entry): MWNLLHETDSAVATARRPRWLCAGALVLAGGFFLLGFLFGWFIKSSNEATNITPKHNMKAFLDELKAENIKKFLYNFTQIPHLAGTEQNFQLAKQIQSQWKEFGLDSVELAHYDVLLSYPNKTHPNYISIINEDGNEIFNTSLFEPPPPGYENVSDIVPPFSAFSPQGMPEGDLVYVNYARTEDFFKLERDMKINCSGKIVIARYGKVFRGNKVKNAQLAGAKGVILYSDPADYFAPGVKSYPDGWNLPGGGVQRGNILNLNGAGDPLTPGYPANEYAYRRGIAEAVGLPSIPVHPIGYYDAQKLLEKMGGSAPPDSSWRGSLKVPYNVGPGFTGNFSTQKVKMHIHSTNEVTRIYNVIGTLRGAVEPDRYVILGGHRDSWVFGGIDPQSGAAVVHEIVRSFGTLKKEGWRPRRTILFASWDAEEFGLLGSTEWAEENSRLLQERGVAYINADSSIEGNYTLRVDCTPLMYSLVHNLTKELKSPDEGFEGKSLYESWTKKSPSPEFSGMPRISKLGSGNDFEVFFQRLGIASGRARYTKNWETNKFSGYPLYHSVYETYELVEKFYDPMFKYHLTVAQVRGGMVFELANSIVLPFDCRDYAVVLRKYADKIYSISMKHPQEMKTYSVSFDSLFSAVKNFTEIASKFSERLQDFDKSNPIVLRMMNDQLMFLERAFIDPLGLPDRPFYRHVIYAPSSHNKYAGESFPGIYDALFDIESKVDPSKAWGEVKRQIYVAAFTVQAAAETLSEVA

[4] = test system: PC3-PIP/flu tumor-bearing mice; details: ref Benešová et al., Mol Pharm 2018, cited from earlier work
[5] = patients; cited from earlier work

In the case of O=C([O-])CN1CCN(CC(=O)[O-])CCN(CC(=O)NCC2CCC(C(=O)NC(Cc3ccc4ccccc4c3)C(=O)NCCCCC(NC(=O)NC(CCC(=O)O)C(=O)O)C(=O)O)CC2)CCN(CC(=O)[O-])CC1.[177Lu+3] (stereo not drawn) [[^177Lu]Lu-PSMA-617], the logD value [1] is listed as −4.4 ± 0.2, the Cell uptake [2] is listed as 60 ± 5% and the Internalized fraction [2] is listed as 13 ± 2%. The Kd [3] was 13 nM, the “Blood, accumulated activity” value ([4]; 1 h p.i.) was 0.50 ± 0.06 % IA/g and the “Bone, accumulated activity” value ([4]; 1 h p.i.) was 0.21 ± 0.04 % IA/g. The “Heart, accumulated activity” value ([4]; 1 h p.i.) was 0.29 ± 0.03 % IA/g, the “Intestines, accumulated activity” value ([4]; 1 h p.i.) was 0.24 ± 0.01 % IA/g and the “Kidneys, accumulated activity” value ([4]; 1 h p.i.) was 9.8 ± 1.4 % IA/g. For the same compound, the “Liver, accumulated activity” value ([4]; 1 h p.i.) was 0.20 ± 0.04 % IA/g, the “Lung, accumulated activity” value ([4]; 1 h p.i.) was 0.57 ± 0.07 % IA/g and the “Muscle, accumulated activity” value ([4]; 1 h p.i.) was 0.25 ± 0.20 % IA/g. The “PC-3 PIP tumor, accumulated activity” value ([4]; 1 h p.i.) was 44 ± 12 % IA/g, the “PC-3 flu tumor, accumulated activity” value ([4]; 1 h p.i.) was 0.28 ± 0.04 % IA/g and the “Salivary glands, accumulated activity” value ([4]; 1 h p.i.) was 0.42 ± 0.30 % IA/g. For the same compound, the “Spleen, accumulated activity” value ([4]; 1 h p.i.) was 0.63 ± 0.27 % IA/g, the “Stomach, accumulated activity” value ([4]; 1 h p.i.) was 0.18 ± 0.02 % IA/g and the Tumor-to-blood ratio ([4]; 1 h p.i.) was 88 ± 13. The Tumor-to-kidney ratio ([4]; 1 h p.i.) was 4.5 ± 0.7, the Tumor-to-liver ratio ([4]; 1 h p.i.) was 213 ± 17 and the “Blood, accumulated activity” value ([4]; 4 h p.i.) was at most 0.10 % IA/g. For the same compound, the “Bone, accumulated activity” value ([4]; 4 h p.i.) was at most 0.10 % IA/g, the “Heart, accumulated activity” value ([4]; 4 h p.i.) was at most 0.10 % IA/g and the “Intestines, accumulated activity” value ([4]; 4 h p.i.) was at most 0.10 % IA/g. For the same compound, the “Kidneys, accumulated activity” value ([4]; 4 h p.i.) was 3.7 ± 1.1 % IA/g, the “Liver, accumulated activity” value ([4]; 4 h p.i.) was at most 0.10 % IA/g and the “Lung, accumulated activity” value ([4]; 4 h p.i.) was at most 0.10 % IA/g. The “Muscle, accumulated activity” value ([4]; 4 h p.i.) was at most 0.10 % IA/g, the “PC-3 PIP tumor, accumulated activity” value ([4]; 4 h p.i.) was 56 ± 8 % IA/g and the “PC-3 flu tumor, accumulated activity” value ([4]; 4 h p.i.) was at most 0.10 % IA/g. The “Salivary glands, accumulated activity” value ([4]; 4 h p.i.) was at most 0.10 % IA/g, the “Spleen, accumulated activity” value ([4]; 4 h p.i.) was 0.15 ± 0.04 % IA/g and the “Stomach, accumulated activity” value ([4]; 4 h p.i.) was at most 0.10 % IA/g. The Tumor-to-blood ratio ([4]; 4 h p.i.) was 2315 ± 108, the Tumor-to-kidney ratio ([4]; 4 h p.i.) was 16 ± 2 and the Tumor-to-liver ratio ([4]; 4 h p.i.) was 598 ± 108. For the same compound, the “Blood, accumulated activity” value ([4]; 24 h p.i.) was at most 0.10 % IA/g, the “Bone, accumulated activity” value ([4]; 24 h p.i.) was at most 0.10 % IA/g and the “Heart, accumulated activity” value ([4]; 24 h p.i.) was at most 0.10 % IA/g. The “Intestines, accumulated activity” value ([4]; 24 h p.i.) was at most 0.10 % IA/g, the “Kidneys, accumulated activity” value ([4]; 24 h p.i.) was 0.76 ± 0.15 % IA/g and the “Liver, accumulated activity” value ([4]; 24 h p.i.) was at most 0.10 % IA/g. The “Lung, accumulated activity” value ([4]; 24 h p.i.) was at most 0.10 % IA/g, the “Muscle, accumulated activity” value ([4]; 24 h p.i.) was at most 0.10 % IA/g and the “PC-3 PIP tumor, accumulated activity” value ([4]; 24 h p.i.) was 37 ± 6 % IA/g. For the same compound, the “PC-3 flu tumor, accumulated activity” value ([4]; 24 h p.i.) was at most 0.10 % IA/g, the “Salivary glands, accumulated activity” value ([4]; 24 h p.i.) was at most 0.10 % IA/g and the “Spleen, accumulated activity” value ([4]; 24 h p.i.) was at most 0.10 % IA/g. For the same compound, the “Stomach, accumulated activity” value ([4]; 24 h p.i.) was at most 0.10 % IA/g, the Tumor-to-blood ratio ([4]; 24 h p.i.) was 2730 ± 195 and the Tumor-to-kidney ratio ([4]; 24 h p.i.) was 50 ± 4. For the same compound, the Tumor-to-liver ratio ([4]; 24 h p.i.) was 528 ± 51, the “Blood, accumulated activity” value ([4]; 48 h p.i.) was at most 0.10 % IA/g and the “Bone, accumulated activity” value ([4]; 48 h p.i.) was at most 0.10 % IA/g. The “Heart, accumulated activity” value ([4]; 48 h p.i.) was at most 0.10 % IA/g, the “Intestines, accumulated activity” value ([4]; 48 h p.i.) was at most 0.10 % IA/g and the “Kidneys, accumulated activity” value ([4]; 48 h p.i.) was 0.35 ± 0.05 % IA/g. The “Liver, accumulated activity” value ([4]; 48 h p.i.) was at most 0.10 % IA/g, the “Lung, accumulated activity” value ([4]; 48 h p.i.) was at most 0.10 % IA/g and the “Muscle, accumulated activity” value ([4]; 48 h p.i.) was at most 0.10 % IA/g. The “PC-3 PIP tumor, accumulated activity” value ([4]; 48 h p.i.) was 28 ± 4 % IA/g, the “PC-3 flu tumor, accumulated activity” value ([4]; 48 h p.i.) was at most 0.10 % IA/g and the “Salivary glands, accumulated activity” value ([4]; 48 h p.i.) was at most 0.10 % IA/g. For the same compound, the “Spleen, accumulated activity” value ([4]; 48 h p.i.) was at most 0.10 % IA/g, the “Stomach, accumulated activity” value ([4]; 48 h p.i.) was at most 0.10 % IA/g and the Tumor-to-blood ratio ([4]; 48 h p.i.) was 3776 ± 585. For the same compound, the Tumor-to-kidney ratio ([4]; 48 h p.i.) was 81 ± 11, the Tumor-to-liver ratio ([4]; 48 h p.i.) was 710 ± 97 and the salivary gland uptake [5] was 1.41 ± 0.53 Gy/GBq.
